Experimental data from US20120184583A1, “MODULATORS OF ATP-BINDING CASSETTE TRANSPORTERS” (VERTEX PHARMACEUTICALS INCORPORATED, priority 2003, published 2012).

Biological target: T1, ΔF508-CFTR stably expressed in NIH3T3 cells (Homo sapiens, UniProt P13569, DEL508-508)
T1 construct: expressed in transfected cells
Experiment: Membrane potential optical (FRET/VIPR) assay for ΔF508-CFTR potentiation
Assay type: cell-based
Conditions: NIH3T3, read-out: % Efficacy (relative modulating efficacy in comparison with genistein), normalized to peak genistein response
Text: Membrane potential optical methods for assaying ΔF508-CFTR potentiation properties of compounds.
These voltage sensitive assays are based on the change in fluorescence resonant energy transfer (FRET) between the membrane-soluble, voltage-sensitive dye, DiSBAC2(3), and a fluorescent phospholipid, CC2-DMPE, which is attached to the outer leaflet of the plasma membrane and acts as a FRET donor. Changes in membrane potential (Vm) cause the negatively charged DiSBAC2(3) to redistribute across the plasma membrane and the amount of energy transfer from CC2-DMPE changes accordingly. The changes in fluorescence emission were monitored using VIPR™ II, which is an integrated liquid handler and fluorescent detector designed to conduct cell-based screens in 96- or 384-well microtiter plates.
To identify potentiators of ΔF508-CFTR, a double-addition HTS assay format was developed (FIG. 1A). During the first addition, a Cl^−-free medium with or without test compound was added to each well. After 22 sec, a second addition of Cl^−-free medium containing 2-10 μM forskolin was added to activate ΔF508-CFTR. The extracellular Cl^− concentration following both additions was 28 mM, which promoted Cl^− efflux in response to ΔF508-CFTR activation and the resulting membrane depolarization was optically monitored using the FRET-based voltage-sensor dyes. The double-addition format has several advantages. First, it enables separation of compounds that act independently of forskolin-activated ΔF508-CFTR. Second, it allows compounds that act from the cytoplasmic surface of the channel to cross the plasma membrane and take effect. Lastly, fluorescent changes that arise from test compound addition alone can be identified.
High-throughput assay format for identifying potentiators of ΔF508-CFTR stably expressed in NIH3T3 cells.
FIG. 1A: Double-addition assay format in which Cl^−-free medium was added with or without the test compound prior to forskolin addition. The cells were incubated at 27° C. for 16-24 hr prior to use.
• Bath Solution #1: (in mM)NaCl 160, KCl 4.5, CaCl2 2, MgCl2 1, HEPES 10, pH 7.4 with NaOH. • Chloride-free bath solution: Chloride salts in Bath Solution #1 are substituted with gluconate salts. • CC2-DMPE: Prepared as a 10 mM stock solution in DMSO and stored at −20° C. • DiSBAC2(3): Prepared as a 10 mM stock in DMSO and stored at −20° C.
NIH3T3 mouse fibroblasts stably expressing ΔF508-CFTR are used for optical measurements of membrane potential. The cells are maintained at 37° C. in 5% CO2 and 90% humidity in Dulbecco's modified Eagle's medium supplemented with 2 mM glutamine, 10% fetal bovine serum, 1×NEAA, β-ME, 1×pen/strep, and 25 mM HEPES in 175 cm^2 culture flasks. For all optical assays, the cells were seeded at 30,000/well in 384-well matrigel-coated plates and cultured for 2 hrs at 37° C. before culturing at 27° C. for 24 hrs.

T1 sequence (P13569 with tags, fused parts or gaps DEL508-508): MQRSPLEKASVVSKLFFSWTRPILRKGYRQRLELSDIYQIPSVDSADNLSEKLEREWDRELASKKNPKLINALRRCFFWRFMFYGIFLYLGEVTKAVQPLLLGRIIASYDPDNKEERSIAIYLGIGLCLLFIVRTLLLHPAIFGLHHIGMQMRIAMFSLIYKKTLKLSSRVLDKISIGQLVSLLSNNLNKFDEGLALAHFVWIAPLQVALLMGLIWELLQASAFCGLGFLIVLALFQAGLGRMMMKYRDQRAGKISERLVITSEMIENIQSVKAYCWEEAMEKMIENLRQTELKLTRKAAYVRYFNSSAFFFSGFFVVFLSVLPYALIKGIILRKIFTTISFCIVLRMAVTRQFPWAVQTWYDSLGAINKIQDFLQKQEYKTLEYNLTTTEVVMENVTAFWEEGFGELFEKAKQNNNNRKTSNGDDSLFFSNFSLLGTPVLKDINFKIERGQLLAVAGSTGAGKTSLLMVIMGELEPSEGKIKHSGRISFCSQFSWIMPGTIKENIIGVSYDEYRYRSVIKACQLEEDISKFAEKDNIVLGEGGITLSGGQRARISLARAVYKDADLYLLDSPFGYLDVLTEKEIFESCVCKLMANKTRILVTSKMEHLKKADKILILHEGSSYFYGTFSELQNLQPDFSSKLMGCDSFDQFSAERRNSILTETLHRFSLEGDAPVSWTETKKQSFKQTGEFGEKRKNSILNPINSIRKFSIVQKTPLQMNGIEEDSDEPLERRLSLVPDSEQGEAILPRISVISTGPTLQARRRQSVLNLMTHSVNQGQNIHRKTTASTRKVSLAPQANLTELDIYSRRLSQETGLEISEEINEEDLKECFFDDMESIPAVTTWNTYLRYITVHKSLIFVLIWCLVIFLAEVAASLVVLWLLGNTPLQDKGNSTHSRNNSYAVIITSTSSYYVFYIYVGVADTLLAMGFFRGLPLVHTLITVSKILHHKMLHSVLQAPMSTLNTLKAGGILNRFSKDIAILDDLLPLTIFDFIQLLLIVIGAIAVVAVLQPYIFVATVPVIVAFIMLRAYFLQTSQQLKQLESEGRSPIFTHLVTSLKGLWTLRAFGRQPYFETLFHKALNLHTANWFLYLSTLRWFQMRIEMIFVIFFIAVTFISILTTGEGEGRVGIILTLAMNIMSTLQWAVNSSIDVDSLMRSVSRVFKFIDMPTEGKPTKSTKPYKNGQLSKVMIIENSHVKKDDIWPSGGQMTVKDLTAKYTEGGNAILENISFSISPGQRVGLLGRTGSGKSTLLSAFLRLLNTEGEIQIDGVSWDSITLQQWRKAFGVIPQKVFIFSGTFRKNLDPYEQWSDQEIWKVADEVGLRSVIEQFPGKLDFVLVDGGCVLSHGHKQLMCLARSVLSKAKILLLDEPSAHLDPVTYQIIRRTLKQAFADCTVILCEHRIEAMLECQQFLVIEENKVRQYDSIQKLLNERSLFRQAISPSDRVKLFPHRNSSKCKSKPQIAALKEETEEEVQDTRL

SMILES | Emax
CCSc1ncccc1-c1cc(-c2ccccc2)n[nH]1 [I-3] | 35 to 75%
Fc1ccccc1-c1cc(-c2ccccc2)n[nH]1 [I-4] | 35 to 75%
CCCSc1ncccc1-c1cc(-c2ccccc2)n[nH]1 [I-5] | 35 to 75%
Fc1ccccc1-c1cc(-c2ccccc2F)[nH]n1 [I-6] | 35 to 75%
Fc1ccccc1-c1cc(-c2ccccc2Cl)[nH]n1 [I-7] | 35 to 75%
Fc1ccccc1-c1cc(-c2cccc(Cl)c2)[nH]n1 [I-9] | 35 to 75%
Fc1ccccc1-c1cc(-c2ccc3c(c2)OC(F)(F)O3)[nH]n1 [I-10] | 35 to 75%
c1ccc(-c2cc(-c3cccc4c3OCO4)[nH]n2)cc1 [I-15] | 35 to 75%
FC(F)(F)Oc1ccc(-c2cc(-c3ccccc3)n[nH]2)cc1 [I-16] | 35 to 75%
Fc1ccccc1-c1cc(-c2ccc(OC(F)(F)F)cc2)[nH]n1 [I-17] | 35 to 75%
Fc1ccccc1-c1cc(-c2cccc(OC(F)(F)F)c2)[nH]n1 [I-18] | 35 to 75%
Cc1cccc(-c2cc(-c3ccccc3)n[nH]2)c1 [I-19] | 35 to 75%
COc1ccc(-c2cc(-c3ccccc3O)n[nH]2)cc1OC [IA-1] | 35 to 75%
COc1ccc(O)c(-c2cc(-c3ccc(F)cc3)[nH]n2)c1 [IA-2] | 35 to 75%
COc1cccc(O)c1-c1cc(-c2ccccc2)n[nH]1 [IA-3] | 35 to 75%
Oc1ccccc1-c1cc(-c2ccc(F)cc2)[nH]n1 [IA-8] | 35 to 75%
Cc1ccc(O)c(-c2cc(-c3ccc(OCc4ccccc4)cc3)n[nH]2)c1 [IA-10] | 35 to 75%
COc1ccc(-c2cc(-c3ccccc3O)n[nH]2)cc1 [IA-11] | 35 to 75%
CCCc1ccc(O)c(-c2cc(-c3ccccc3)[nH]n2)c1 [IA-14] | > 75%
COc1ccc(O)c(-c2cc(-c3ccccc3)[nH]n2)c1 [IA-18] | 35 to 75%
Oc1ccc(Cl)cc1-c1cc(-c2ccccc2)[nH]n1 [IA-19] | 35 to 75%
Cc1ccc(O)c(-c2cc(-c3ccc4c(c3)OCO4)n[nH]2)c1 [IA-25] | 35 to 75%

SMILES | Emax
CC(C)c1ccc(O)c(-c2cc(-c3ccccc3)[nH]n2)c1 [IA-26] | > 75%
Oc1ccc(-c2cc(-c3ccccc3O)[nH]n2)cc1 [IA-33] | 35 to 75%
Cc1cc(O)c(-c2cc(-c3ccccc3)n[nH]2)cc1C [IA-36] | 35 to 75%
CSc1ncccc1-c1cc(-c2ccccc2O)n[nH]1 [IA-37] | 35 to 75%
COc1cccc(-c2n[nH]c(-c3ccccc3O)c2OC)c1 [IA-38] | 35 to 75%
Oc1cccc(-c2cc(-c3ccccc3O)[nH]n2)c1 [IA-43] | > 75%
Cc1ccc(O)c(-c2cc(-c3cc(C(C)(C)C)oc3C)n[nH]2)c1 [IA-50] | 35 to 75%
Oc1ccc(-c2nnn[nH]2)cc1-c1cc(-c2ccccc2)n[nH]1 [IA-54] | 35 to 75%
Cc1ccc(O)c(-c2cc(-c3cc(C(F)(F)F)nn3-c3ccc([N+](=O)[O-])cc3)n[nH]2)c1 [IA-65] | 35 to 75%
Oc1ccccc1-c1cc(-c2ccccc2Cl)[nH]n1 [IA-68] | 35 to 75%
Oc1cc(F)ccc1-c1cc(-c2ccccc2)[nH]n1 [IA-70] | 35 to 75%
Cc1ccc(O)c(-c2cc(C3CCCCC3)n[nH]2)c1 [IA-71] | 35 to 75%
Cc1ccc(O)c(-c2cc(-c3ccc(-c4ccc(S(C)(=O)=O)cc4)o3)n[nH]2)c1 [IA-76] | 35 to 75%
COc1ccc(O)c(-c2cc(-c3cccnc3Oc3ccccc3)[nH]n2)c1 [IA-77] | 35 to 75%
Oc1ccccc1-c1cc(-c2cccc(F)c2)[nH]n1 [IA-81] | 35 to 75%
Cc1ccc(-c2cc(-c3ccc(C)cc3O)n[nH]2)cc1 [IA-82] | 35 to 75%
Cc1cc(C)c(-c2cc(-c3cc(C)ccc3O)[nH]n2)c(C)c1 [IA-85] | 35 to 75%
Cc1ccc(O)c(-c2cc(-c3cccnc3Sc3ccc(Cl)cc3)n[nH]2)c1 [IA-86] | 35 to 75%
Oc1ccc(Cl)cc1-c1cc(-c2ccc(F)cc2)[nH]n1 [IA-88] | 35 to 75%
Cc1ccc(O)c(-c2cc(C(Cc3ccccc3)NS(=O)(=O)c3cccc4ccccc34)n[nH]2)c1 (centres unmarked) [IA-91] | 35 to 75%
Cc1cc(-c2cc(-c3cc(F)ccc3O)n[nH]2)c(C(F)(F)F)o1 [IA-92] | 35 to 75%

The remaining lines, values ahead:

Emax | SMILES
> 75% | Cc1ccc(O)c(-c2cc(-c3ccccc3[N+](=O)[O-])[nH]n2)c1 [IA-5]
> 75% | Oc1ccc(F)cc1-c1cc(-c2ccccc2C(F)(F)F)[nH]n1 [IA-6]
35 to 75% | Cc1ccc(O)c(-c2cc(-c3ccc(-c4cccc(C(F)(F)F)c4)o3)n[nH]2)c1 [IA-7]
35 to 75% | COc1ccc(O)c(-c2cc(-c3ccccc3C(F)(F)F)n[nH]2)c1 [IA-16]
35 to 75% | Cc1ccc(O)c(-c2cc(-c3ccc(C(F)(F)F)c(C)c3)n[nH]2)c1 [IA-17]
> 75% | O=[N+]([O-])c1ccccc1-c1cc(-c2cc(F)ccc2O)[nH]n1 [IA-20]
35 to 75% | Oc1ccc(F)cc1-c1cc(-c2ccccc2)n[nH]1 [IA-21]
35 to 75% | COc1ccc(-c2cc(-c3cc(C)ccc3O)n[nH]2)cc1 [IA-22]
35 to 75% | Cc1ccccc1-c1cc(-c2ccccc2O)n[nH]1 [IA-24]
35 to 75% | Cc1ccc(O)c(-c2cc(-c3cccnc3)n[nH]2)c1 [IA-27, 4-Methyl-2-(5-pyridin-3-yl-1H-pyrazol-3-yl)phenol]
> 75% | Cc1ccc(O)c(-c2cc(-c3cccs3)n[nH]2)c1 [IA-28]
35 to 75% | Cc1ccc(O)c(-c2cc(-c3ccccc3-c3ccncc3)n[nH]2)c1 [IA-29]
35 to 75% | Cc1ccc(O)c(-c2cc(-c3ccccc3C#N)n[nH]2)c1 [IA-30]
< 35% | Cc1ccc(O)c(-c2cc(-c3ccccc3O)n[nH]2)c1 [IA-34]
> 75% | Cc1ccc(O)c(-c2cc(-c3ccc(Br)cc3)[nH]n2)c1 [IA-35]
35 to 75% | CC(=O)Nc1cccc(-c2cc(-c3cc(C)ccc3O)[nH]n2)c1 [IA-40]
35 to 75% | Cc1ccc(O)c(-c2cc(-c3ccccc3C(F)(F)F)n[nH]2)c1 [IA-41]
> 75% | Cc1ccc(O)c(-c2cc(-c3cc(C(F)(F)F)oc3C)n[nH]2)c1 [IA-42]
35 to 75% | Cc1ccc(O)c(-c2cc(-c3ccc(F)c(F)c3)n[nH]2)c1 [IA-44]
> 75% | Cc1ccc(O)c(-c2cc(-c3ccccc3OC(F)(F)F)n[nH]2)c1 [IA-45]

Emax | SMILES
< 35% | Cc1ccc(O)c(-c2cc(-c3ccccc3Cl)[nH]n2)c1 [IA-48]
35 to 75% | Cc1ccc(O)c(-c2cc(-c3ccc(F)c(Cl)c3)n[nH]2)c1 [IA-51]
> 75% | O=[N+]([O-])c1ccccc1-c1cc(-c2cc(Cl)ccc2O)n[nH]1 [IA-52]
35 to 75% | Cc1ccc(O)c(-c2cc(-c3cccc(C)c3C)n[nH]2)c1 [IA-53]
35 to 75% | COc1ccc(O)c(-c2cc(-c3ccccc3Cl)[nH]n2)c1 [IA-55]
35 to 75% | Cc1ccc(O)c(-c2cc(-c3c(F)ccc(C)c3F)n[nH]2)c1 [IA-56]
35 to 75% | Cc1ccc(-c2cc(-c3ccccc3Cl)[nH]n2)c(O)c1 [IA-58]
35 to 75% | Cc1ccc(-c2cc(-c3cc(C)ccc3O)n[nH]2)cc1 [IA-59]
35 to 75% | COc1ccc(O)c(-c2cc(-c3ccccc3C)[nH]n2)c1 [IA-62]
< 35% | Cc1ccc(-c2cc(-c3ccc(F)cc3)[nH]n2)c(O)c1 [IA-63]
35 to 75% | COc1cccc(-c2cc(-c3cc(C)ccc3O)[nH]n2)c1 [IA-66]
35 to 75% | COc1ccc(-c2cc(-c3cc(C)ccc3O)[nH]n2)cc1C(F)(F)F [IA-72]
35 to 75% | Cc1ccc(O)c(-c2cc(-c3cccc(C(F)(F)F)c3C)n[nH]2)c1 [IA-74]
35 to 75% | Oc1ccccc1-c1cc(-c2c(F)cccc2F)n[nH]1 [IA-78]
< 35% | Cc1ccc(O)c(-c2cc(-c3ccccc3SC(F)F)n[nH]2)c1 [IA-79]
35 to 75% | CCOc1ccccc1-c1cc(-c2cc(C)ccc2O)[nH]n1 [IA-80]
35 to 75% | Cc1ccc(O)c(-c2cc(-c3ccccc3Oc3ccccc3)n[nH]2)c1 [IA-84]
35 to 75% | Cc1ccc(O)c(-c2cc(-c3cccc([N+](=O)[O-])c3)n[nH]2)c1 [IA-87]
35 to 75% | Cc1ccc(O)c(-c2cc(-c3cc(Cl)ccc3C(F)(F)F)n[nH]2)c1 [IA-89]
35 to 75% | Oc1ccc(Cl)cc1-c1cc(-c2ccc(C(F)(F)F)cc2)[nH]n1 [IA-90]
